# Where a name gives a salt, the structure may show the parent alone. Read-outs that look alike come from different tables or passages of the source.
# Legend:
# [1] = tested on: Gram-positive and Gram-negative bacteria; details: in vitro, known / U.S. Pat. No. 3,914,257, cited from earlier work
# [2] = tested on: Proteus vulgaris X19H ATCC 881; assay: MIC by broth microdilution, Proteus vulgaris; assay type: cell-based; details: ATCC881
# [3] = tested on: Pseudomonas aeruginosa ATCC 10145; assay: MIC by broth microdilution, Pseudomonas aeruginosa; assay type: cell-based; details: ATCC10145, Table 2, internal code 4, approx. 10^4 cfu/ml, Iso-Sensitest broth, 37° C., 20-24 h, air
# [4] = tested on: Staphilococcus haemolyticus (clin. isolate); assay: MIC by broth microdilution, Staphylococcus haemolyticus; assay type: cell-based
# [5] = tested on: Escherichia coli SKF 12140; assay: MIC by broth microdilution, Escherichia coli; assay type: cell-based
# [6] = tested on: Staphilococcus aureus Tour; assay: MIC by broth microdilution, Staphylococcus aureus Tour; assay type: cell-based; details: Iso-Sensitest broth, 37° C., 20-24 h, air
# [7] = tested on: Tricophyton mentagrophytes; assay: MIC by broth microdilution, Trichophyton mentagrophytes; assay type: cell-based; details: 72 h
# [8] = tested on: Enterococcus faecalis ATCC 7080; assay: MIC by broth microdilution, Enterococcus faecalis; assay type: cell-based
# [9] = tested on: Streptococcus pneumonieae UC 41; assay: MIC by broth microdilution, Streptococcus pneumoniae; assay type: cell-based
# [10] = tested on: Staphilococcus epidermidis ATCC 12228; assay: MIC by broth microdilution, Staphylococcus epidermidis; assay type: cell-based
# [11] = tested on: Bacteroides fragiles ATCC 9689; assay: MIC by broth microdilution, Bacteroides fragilis; assay type: cell-based; details: ATCC9689, Table 2, internal code 1010, approx. 10^4 cfu/ml, Wilkins-Chalgren broth, 37° C., 48 h, N2-CO2-H2 (80:10:10)
# [12] = tested on: Candida albicans SKF 2270; assay: MIC by broth microdilution, Candida albicans; assay type: cell-based; details: Table 2; internal code 145; approx. 10^4 cfu/ml; buffered Yeast Nitrogen Base broth + glucose + L-asparagine; 37° C., 20-24 h, air
# [13] = tested on: Propionibacterium acnes ATCC 6919; assay: MIC by broth microdilution, Propionibacterium acnes; assay type: cell-based; details: Cutibacterium acnes
# [14] = tested on: Streptococcus pyogenes C 203; assay: MIC by broth microdilution, Streptococcus pyogenes; assay type: cell-based
# [15] = tested on: Neisseria gonorrhoeae ISM 68/126; assay: MIC by broth microdilution, Neisseria gonorrhoeae; assay type: cell-based; details: ISM68/126, Table 2, internal code 997, approx. 10^4 cfu/ml, GC Base broth + 1% IsoVitaleX, 37° C., 48 h, 5% CO2
# [16] = tested on: Haemophilus influenzae type b ATCC 19418; assay: MIC by broth microdilution, Haemophilus influenzae; assay type: cell-based; details: ATCC19418, Table 2, internal code 970, approx. 10^4 cfu/ml, Brain Heart infusion broth + 1% Supplement C, 37° C., 48 h, 5% CO2
# [17] = tested on: fungi, including filamentous fungi (e.g., Trichophyton mentarophytes) and yeasts (e.g., Candida albicans); details: in vitro; U.S. Pat. No. 3,914,257; cited from earlier work
# [18] = tested on: Clostridium perfringens ISS 30543; assay: microbe, parasite or virus in culture; assay type: cell-based; details: ISS30543, 48 h
# [19] = Table 2, internal code 165, + 30% bovine serum
# [20] = Table 2, internal code 165, inoculum approx. 10^4 cfu/ml
# [21] = Table 2, internal code 634, 1% (v/v) suspension of mycelia and conidia, YM broth, 30° C., air, read-out: MIC
# [22] = Table 2, internal code 602, approx. 10^4 cfu/ml, Iso-Sensitest broth, 37° C., 20-24 h, air, read-out: MIC
# [23] = Table 2, internal code 165, inoculum 10^6 cfu/ml
# [24] = ATCC7080, Table 2, internal code 149, approx. 10^4 cfu/ml, Iso-Sensitest broth, 37° C., 20-24 h, air, read-out: MIC
# [25] = ATCC12228, Table 2, internal code 147, approx. 10^4 cfu/ml, Iso-Sensitest broth, 37° C., 20-24 h, air, read-out: MIC
# [26] = Table 2, internal code 165, + 30% bovine serum, read-out: MIC
# [27] = UC41, Table 2, internal code 44, approx. 10^4 cfu/ml, Todd Hewitt broth, 37° C., 20-24 h, air, read-out: MIC
# [28] = ATCC6919, Table 2, internal code 1014, approx. 10^4 cfu/ml, Wilkins-Chalgren broth, 37° C., 48 h, N2-CO2-H2 (80:10:10), read-out: MIC
SMILES,MIC [2],MIC [3],MIC [4],MIC ([5]; SKF12140),"MIC [6, 19]","MIC [6, 20]",MIC ([8]; ATCC7080),MIC ([9]; UC41),MIC [11],MIC [12],MIC ([14]; C203),"MIC [4, 22]","MIC [6, 23]",MIC [7],"MIC [10, 25]",MIC [15],"MIC [9, 27]",further results
COC(=O)c1cc2cc3c(c(O)c2c(=O)o1)OC1(CC3)Cc2c(O)c3c(c(O)c2O1)C(=O)C(OC)=CC3=O (centres unmarked) [γ-Rubromycin],–,–,–,–,–,–,–,–,–,–,–,–,–,–,–,–,–,antimicrobial activity against Gram-positive and Gram-negative bacteria [1]: known antimicrobial agents against Gram-positive and Gram-negative bacteria
"COC(=O)c1cc2cc3c(c(O)c2c(=O)o1)OC1(CC3)Cc2c(O)c3c(c(O)c2O1)C(=O)C(N)=CC3=O (centres unmarked) [Example 30, 7'-Amino-γ-rubromycin]",> 128 µg/mL,> 128 µg/mL,0.016 µg/mL,> 128 µg/mL,1 µg/mL,0.016 µg/mL,0.03 µg/mL,0.016 µg/mL,0.06 µg/mL,16 µg/mL,0.03 µg/mL,–,–,–,–,–,–,"MIC [7, 21]: 16 µg/mL; MIC ([10]; ATCC12228): 0.016 µg/mL; MIC ([13]; ATCC6919, 48 h): 0.016 µg/mL"
"CCCNC1=CC(=O)c2c(O)c3c(c(O)c2C1=O)OC1(C3)CC(O)c2cc3cc(C(=O)OC)oc(=O)c3c(O)c2O1 (centres unmarked) [Example 12, 7'-propylamino purpuromycin]",128 µg/mL,128 µg/mL,–,> 128 µg/mL,2 µg/mL,0.03 µg/mL,–,0.03 µg/mL,0.03 µg/mL,64 µg/mL,–,0.06 µg/mL,0.03 µg/mL,128 µg/mL,0.016 µg/mL,0.06 µg/mL,–,"MIC [8, 24]: 0.06 µg/mL; MIC ([14]; C203, Table 2, internal code 49, approx. 10^4 cfu/ml, Todd Hewitt broth, 37° C., 20-24 h, air, read-out: MIC): 0.13 µg/mL; MIC [16]: 0.13 µg/mL"
COC(=O)c1cc2cc3c(c(O)c2c(=O)o1)OC1(Cc2c(O)c4c(c(O)c2O1)C(=O)C(NCc1ccccc1)=CC4=O)CC3O (centres unmarked) [Example 8],> 128 µg/mL,> 128 µg/mL,–,> 128 µg/mL,–,0.5 µg/mL,–,–,–,–,1 µg/mL,0.13 µg/mL,1 µg/mL,> 128 µg/mL,0.13 µg/mL,0.25 µg/mL,0.06 µg/mL,"MIC [6, 26]: 32 µg/mL; MIC [8, 24]: 4 µg/mL"
"COC(=O)c1cc2cc3c(c(O)c2c(=O)o1)OC1(Cc2c(O)c4c(c(O)c2O1)C(=O)C(OC)=CC4=O)CC3O (centres unmarked) [Purpuromycin, purpuromycin]",–,–,–,–,–,–,–,–,–,–,–,–,–,–,–,–,–,antimicrobial activity against Gram-positive and Gram-negative bacteria [1]: known antimicrobial agents against Gram-positive and Gram-negative bacteria; antimicrobial activity against Gram-positive and Gram-negative bacteria ([1]; listed as purpuromycin): active in vitro; activity against fungi [17]: active in vitro
"CNC1=CC(=O)c2c(O)c3c(c(O)c2C1=O)OC1(C3)CC(O)c2cc3cc(C(=O)OC)oc(=O)c3c(O)c2O1 (centres unmarked) [Example 14, 7'-methylamino purpuromycin]",> 128 µg/mL,> 128 µg/mL,–,> 128 µg/mL,0.25 µg/mL,–,0.03 µg/mL,–,0.03 µg/mL,2 µg/mL,0.03 µg/mL,0.016 µg/mL,–,–,0.008 µg/mL,0.06 µg/mL,0.016 µg/mL,"MIC ([6]; Table 2, internal code 165, inoculum 10^6 cfu/ml, read-out: MIC): 0.06 µg/mL; MIC ([6]; Table 2, internal code 165, inoculum approx. 10^4 cfu/ml, read-out: MIC): 0.016 µg/mL; MIC [7, 21]: ≤ 0.13 µg/mL; MIC [13, 28]: 0.008 µg/mL; MIC [16]: 0.13 µg/mL"
"COC(=O)c1cc2cc3c(c(O)c2c(=O)o1)OC1(Cc2c(O)c4c(c(O)c2O1)C(=O)C(NCCN(C)C)=CC4=O)CC3O (centres unmarked) [Example 6, 7'-(2-dimethylaminoethylen)amino purpuromycin hydrochloride]",128 µg/mL,128 µg/mL,0.5 µg/mL,–,–,–,–,–,0.5 µg/mL,64 µg/mL,–,–,–,128 µg/mL,–,–,0.06 µg/mL,"MIC ([5]; SKF12140, Table 2, internal code 47, approx. 10^4 cfu/ml, Iso-Sensitest broth, 37° C., 20-24 h, air, read-out: MIC): 16 µg/mL; MIC [6, 26]: 0.25 µg/mL; MIC [13, 28]: 0.06 µg/mL"
"COC(=O)c1cc2cc3c(c(O)c2c(=O)o1)OC1(Cc2c(O)c4c(c(O)c2O1)C(=O)C(NCCNC(=O)OC(C)(C)C)=CC4=O)CC3O (centres unmarked) [Example 18, 7'-(2-(N--BOC-amino)ethylen)-amino purpuromycin]",> 128 µg/mL,> 128 µg/mL,0.06 µg/mL,> 128 µg/mL,2 µg/mL,0.13 µg/mL,0.13 µg/mL,0.06 µg/mL,0.5 µg/mL,–,0.13 µg/mL,–,0.13 µg/mL,> 128 µg/mL,–,–,–,"MIC [18]: 0.25 µg/mL; MIC ([10]; ATCC12228): 0.06 µg/mL; MIC ([13]; ATCC6919, 48 h): 0.016 µg/mL"

# — patent publication US5475010A, “7'-amino-naphthazarin antibiotic derivatives” (Gruppo Lepetit S.p.A., priority 1991, dated 1995)
